Assay results published in patent US20240156756A1 (Steel Therapeutics, Inc., priority 2021, published 2024).
Where a name gives a salt, the structure may show the parent alone. Read-outs that look alike come from different tables or passages of the source.

Experiments:
[1] = for stability of control sample (active only, no excipient): HPLC impurities
chronic anal fissures = conditions: cream containing 0.5% nifedipine for four weeks; cited from earlier work

stability of control sample (active only, no excipient) ([1]; T0, both temperatures (RT & 40° C.))	degradation in any excipient combinations ([1]; T0, both temperatures (RT & 40° C.), major = >5%)	degradation in DEC combinations ([1]; T4 weeks, Benzyl Alcohol and Oleyl alcohol combinations)	major degradation in DEC combinations ([1]; T4 weeks, RT & 40° C., combinations of Transcutol, DMI, and PEG 400) [%]	stability of control sample (active only, no excipient) ([1]; T4 weeks, both temperatures (RT & 40° C.))	SMILES	patients experienced healing (chronic anal fissures) [%]
stable	No major degradation	Slight degradation	> 5	stable	CCN(CC)CC(=O)Nc1c(C)cccc1C [Lidocaine HCl, 2-(diethylamino)-N-(2,6-dimethylphenyl)acetamide;hydrochloride]	–
–	–	–	–	–	COC(=O)C1=C(C)NC(C)=C(C(=O)OC)C1c1ccccc1[N+](=O)[O-] [Nifedipine, dimethyl 2,6-dimethyl-4-(2-nitrophenyl)-1,4-dihydropyridine-3,5-dicarboxylate]	70
